Laboratory results published in patent publication US20260250320A1, “LIPIDATED PEPTIDE INHIBITORS OF INTERLEUKIN-23 RECEPTOR” (Janssen Pharmaceutica NV, priority 2023, published 2026).
pIC50: −log10 of the molar value. *1 amine or outer side, *2 acyl side, *3 side chain or, on linkers, in order; H or OH if unused. Where a SMILES comes first, the peptide text is derived from it. Bridges are numbered along the chain shown (N, C = ends). Side-chain parts run from the residue outwards. [ ]: non-standard residue; d: D form. The star is where a group is joined. FITC = O=C1OC2(c3ccc(O)cc3Oc3cc(O)ccc32)c2ccc(NC(=S)*)cc21; NH(CH2CH2O)2CH2CH2NMe3+ = C[N+](C)(C)CCOCCOCCN*; Trp(7-Me) = Cc1cccc2c(C[C@H](N)C(=O)O)c[nH]c12; C18 diacid = O=C(O)CCCCCCCCCCCCCCCCC(=O)*; γGlu = O=C(O)[C@H](CCC(=O)[*:2])N[*:1]; 2Nal = N[C@@H](Cc1ccc2ccccc2c1)C(=O)O; AEF = NCCOc1ccc(C[C@H](N)C(=O)O)cc1; 3Pal = N[C@@H](Cc1cccnc1)C(=O)O; PEG4 = NCCOCCOCCOCCOCCC(=O)O; Pen = CC(C)(S)[C@H](N)C(=O)O; Thp = NC1(C(=O)O)CCOCC1; AEEA = NCCOCCOCC(=O)O; Sar = CNCC(=O)O

What was measured:
[1] = test system: IL-23-stimulated phosphorylated STAT3 in peripheral blood mononuclear cells (PBMCs); assay: PBMC pSTAT3 Assay; assay type: cell-based; conditions: PBMCs from healthy donors; 30 min preincubation with peptide; IL-23 5 ng/mL for 30 min; phospho-STAT3 by MSD
In short: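 Healthy-donor PBMCs expanded 4 days on anti-CD3 with 100 ng/mL IL-1β, starved ~4 h in RPMI-0.1% BSA, preincubated 30 min with peptide, then stimulated 30 min at 37 °C with 5 ng/mL IL-23. Lysate pSTAT3 measured by MSD phospho-STAT panel; IC50 derived.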

[2] = target: T1, IL-23R (Homo sapiens, UniProt Q5VWK5); assay: IL23R Reporter Assay; assay type: cell-based; conditions: HEK293 cells containing IL-23R, IL-12Rβ1 and STAT-inducible firefly luciferase reporter; 10 ng/mL IL-23 (EC90); 5 h
T1 construct: HEK293 cells containing IL-23R, IL-12Rβ1 and a firefly luciferase reporter gene driven by a STAT-inducible promoter (Promega); host or cells: HEK293
T1 sequence (Q5VWK5 24-629): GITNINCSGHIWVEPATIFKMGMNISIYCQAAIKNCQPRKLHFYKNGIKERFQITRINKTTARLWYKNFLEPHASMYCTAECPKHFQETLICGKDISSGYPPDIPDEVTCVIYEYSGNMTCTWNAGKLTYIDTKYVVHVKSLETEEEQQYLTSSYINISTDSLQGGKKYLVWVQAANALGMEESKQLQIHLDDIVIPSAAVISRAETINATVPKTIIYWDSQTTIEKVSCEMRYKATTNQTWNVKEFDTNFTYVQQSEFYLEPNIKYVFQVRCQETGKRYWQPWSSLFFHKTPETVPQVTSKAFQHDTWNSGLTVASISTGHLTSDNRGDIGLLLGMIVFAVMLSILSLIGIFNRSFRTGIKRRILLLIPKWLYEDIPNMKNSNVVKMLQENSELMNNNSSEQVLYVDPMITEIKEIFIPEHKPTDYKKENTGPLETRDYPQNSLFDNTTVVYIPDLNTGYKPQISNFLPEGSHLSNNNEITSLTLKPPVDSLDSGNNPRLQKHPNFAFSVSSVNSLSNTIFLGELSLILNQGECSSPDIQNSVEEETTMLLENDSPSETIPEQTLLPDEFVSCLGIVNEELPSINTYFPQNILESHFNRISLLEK
In short: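 HEK293 cells carrying IL-23R, IL-12Rβ1 and a STAT-driven firefly luciferase reporter (4000 cells/well) received compound, then 10 ng/mL IL-23 solution (EC90), and were incubated for 5 h at 37° C. BioGlo luminescence was normalised to IL-23 alone (0%) and 30 μM control inhibitor (100%). IC50 came from a 4-parameter Hill fit.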

SMILES | pIC50 [1] | pIC50 [2]
CC(=O)NCCCC[C@@H]1NC(=O)[C@H](Cc2c[nH]c3c(C)cccc23)NC(=O)[C@H]([C@@H](C)O)NC(=O)[C@H](CCCCNC(=O)COCCOCCNC(=O)COCCOCCNC(=O)CC[C@H](NC(=O)CCCCCCCCCCCCCCCCC(=O)O)C(=O)O)NC(=O)[C@@H](NC(=O)[C@@H](CCCNC(=N)N)NC(C)=O)C(C)(C)SSC(C)(C)[C@@H](C(=O)N[C@@H](Cc2ccc(OCCN)cc2)C(=O)N[C@@H](Cc2ccc3ccccc3c2)C(=O)NC2(C(=O)N[C@@H](CCC(=O)O)C(=O)N[C@@H](CC(N)=O)C(=O)N[C@@H](Cc3cccnc3)C(=O)N(C)CC(=O)NCCOCCOCC[N+](C)(C)C)CCOCC2)NC1=O [compound 66, MeCO-r-Pen(3)-K(PEG2PEG2gEC18OH)-T-7MeW-K(Ac)-Pen(3)-AEF-2Nal-THP-E-N-3Pya-Sar-CONH(PEG3a)] (Ac-[dR][Pen]K([AEEA-AEEA-γGlu-C18 diacid])T[Trp(7-Me)]K(Ac)[Pen][AEF][2Nal][Thp]EN[3Pal][Sar]-{NH(CH2CH2O)2CH2CH2NMe3+}; disulfide 2-7) | 8.30 to 9.30 | ≤ 6.30
CC(=O)NCCCC[C@@H]1NC(=O)[C@H](CC2CNc3c(C)cccc32)NC(=O)[C@H]([C@@H](C)O)NC(=O)[C@H](CC(N)=O)NC(=O)[C@@H](NC(C)=O)C(C)(C)SSC(C)(C)[C@@H](C(=O)N[C@@H](Cc2ccc(OCCN)cc2)C(=O)N[C@@H](Cc2ccc3ccccc3c2)C(=O)NC2(C(=O)N[C@@H](CCCCNC(=O)CCOCCOCCOCCOCCOCCOCCOCCOCCOCCOCCOCCOCCNCCC[C@H](NC(=O)CCCCCCCCCCCCCCCCC(=O)O)C(=O)O)C(=O)N[C@@H](C)C(=O)N[C@@H](Cc3ccccc3)C(=O)N(C)CC(N)=O)CCOCC2)NC1=O (stereo partly drawn) [compound 100, MeCO-Pen(3)-N-T-7MeW-K(Ac)-Pen(3)-AEF-2Nal-THP-K(PEG12gEC18OH)-N-3Pya-Sar-CONH2] | > 9.30 | > 7.30
CC(=O)NCCCC[C@@H]1NC(=O)[C@H](Cc2c[nH]c3c(C)cccc23)NC(=O)[C@H]([C@@H](C)O)NC(=O)[C@H](CC(N)=O)NC(=O)[C@@H](NC(=O)[C@@H](CCCNC(=N)N)NC(=O)CCOCCOCCOCCOCCNC(=S)Nc2ccc3c(c2)C(=O)OC32c3ccc(O)cc3Oc3cc(O)ccc32)C(C)(C)SSC(C)(C)[C@@H](C(=O)N[C@@H](Cc2ccc(OCCN)cc2)C(=O)N[C@@H](Cc2ccc3ccccc3c2)C(=O)NC2(C(=O)N[C@@H](CCC(=O)O)C(=O)N[C@@H](CC(N)=O)C(=O)N[C@@H](Cc3cccnc3)C(=O)N(C)CC(=O)N[C@@H](CCCCNC(=O)COCCOCCNC(=O)COCCOCCNC(=O)CC[C@H](NC(=O)CCCCCCCCCCCCCCCCC(=O)O)C(=O)O)C(N)=O)CCOCC2)NC1=O [compound 25, FITCPEG4CO-r-Pen(3)-N-T-7MeW-K(Ac)-Pen(3)-AEF-2Nal-THP-E-N-3Pya-Sar-K(PEG2PEG2gEC18OH)-CONH2] ({FITC-PEG4}-[dR][Pen]NT[Trp(7-Me)]K(Ac)[Pen][AEF][2Nal][Thp]EN[3Pal][Sar]K([AEEA-AEEA-γGlu-C18 diacid])-NH2; disulfide 2-7) | 8.30 to 9.30 | 6.30 to 7.30
CC(=O)NCCCC[C@H](NC(=O)C1(NC(=O)[C@H](Cc2ccc3ccccc3c2)NC(=O)[C@H](Cc2ccc(OCCN)cc2)NC(=O)[C@@H](NC(=O)[C@@H](N)CCCCNC(C)=O)C(C)(C)SSC(C)(C)[C@H](NC(C)=O)C(=O)N[C@@H](CC(N)=O)C(=O)N[C@H](C(=O)N[C@H](Cc2c[nH]c3c(C)cccc23)C(C)=O)[C@@H](C)O)CCOCC1)C(=O)N[C@@H](CC(N)=O)C(=O)N[C@@H](Cc1cccnc1)C(=O)N(C)CC(=O)N[C@@H](CCCCNC(=O)COCCOCCN(C)C(=O)COCCOCCN(C)C(=O)CC[C@@H](C(=O)O)N(C)C(=O)CCCCCCCCCCCCCCCCCc1nnn[nH]1)C(N)=O [compound 2, MeCO-Pen(3)-N-T-7MeW-K(Ac)-Pen(3)-AEF-2Nal-THP-K(Ac)-N-3Pya-Sar-K(PEG2NMePEG2NMegENMeC18Tetrazole)-CONH2] | > 9.30 | 6.30 to 7.30
